Results taken from patent publication US20040002482A1, “Androgen pharmaceutical composition and method for treating depression” (priority 2000, published 2004).
Where two headings read alike, the source gives them in different places.

Tests used:
[1] = test system: major depressive disorder; test: Eight-week randomized placebo-controlled depression trial of testosterone gel: HAM-D, CGI, BDI; type: in vivo, treatment-refractory depressed men
Protocol: Men age 30-65 years, presently taking an adequate dose of antidepressant medication (as defined by the manufacturer's published product information) for at least the last four weeks, but still complaining of depressive symptoms sufficient to meet DSM-IV criteria for current major depressive disorder. Subjects were initially screened. […] Subjects were then administered the depression module the Structured Clinical Interview for DSM-IV (SCID) to confirm the diagnosis of current major depressive disorder. Subjects were next administered the American Urological Association (AUA) Symptom Index for benign prostatic hyperplasia (B PH), subjects scoring higher than 14 on this index were excluded. Blood was then collected for total testosterone and PSA levels.
(§1) Next, the subjects were administered: 1) basic demographic questions; 2) the remainder of the SCID; 3) questions regarding history of previous antidepressant drug treatment; 4) the HAM-D; 5) the BDI; 6) the Clinical Global Impression Scale (CGI); 7) medical history questions; 8) physical examination, including vital signs, height, weight, and digital rectal examination of the prostate; 9) laboratory tests for standard chemistries, hematology, urinalysis, and HIV serology; 10) electrocardiogram (EKG); and 11) determination of body fat with calipers, together with calculation of fat-free mass index (FFMI), a measure of muscularity previously developed in our laboratory.
Qualifying subjects were then started on a one-week single-blind placebo washout with placebo gel. All subjects were asked to continue taking their existing antidepressant medications, together with any other medications that they were prescribed, at their present dose throughout the study.
Baseline (Week 0): Subjects were assessed for scores on the HAM-D, BDI, and CGI-Severity of Illness; adverse events; and vital signs. Results from the laboratory tests drawn at screen and from EKG readings were also reviewed. […] Drug and placebo were supplied in identical-appearing packets that contained either 2.5 g of AndroGel or a placebo gel.
Week 1: Subjects were assessed for scores on the HAM-D, BDI, and CGI (both Severity of Illness and Improvement as compared to Baseline); adverse events; and vital signs. Subjects provided blood for a total testosterone level, drawn at least four hours after the morning application of the gel.
(§2) Weeks 2, 4, 6, and 8: Subjects were assessed at weeks 2, 4,6 and 8 for HAM-D, BDI, CGI, adverse events, and vital signs. Week 8, subjects received an additional determination of PSA and measurement of weight and body fat. The blind was then broken and the correct identity of treatment assignment determined.
Statistical Analysis: Baseline characteristics of each group were compared using Fisher's exact test for categorical variables and the […] for continuous variables. Two populations of patients were defined: (1) an intent-to-treat group of patients with at least one available efficacy measure, and (2) a completers group, defined as patients who completed the 8-week treatment period.
The primary protocol-defined analysis of efficacy was a repeated measures random regression analysis comparing the rate of change of scores on the HAM-D, BDI, and CGI-severity during the treatment period between groups, using methods described by Diggle et al. and Gibbons et al. A model was used for the mean of the outcome variable that included terms for treatment, time, and treatment-by-time interaction. Time as a continuous variable was modeled, with weeks ranging from 0 (Baseline) to 8 (after randomization). The measure of effect was the treatment-by-time interaction (or the difference in the rate of change per unit of time, or the difference in slope with respect to time) of the efficacy measure. […]

body fat and muscle mass = test: Depression trial: percent body fat and fat-free mass index (FFMI); type: in vivo, treatment-refractory depressed men; details: study completers; mean (SD); not significant vs placebo
Protocol: as §1, §2
For laboratory measures, including body fat and FFMI, the mean difference between endpoint and baseline measures were used, and then compared the treatment groups using the t-test. The correlation coefficients were calculated by using rank-transformed data (Spearman rank correlation). All statistical tests were two-sided with alpha=0.05.

body weight = details: patch delivering 150 ug/day; 12 weeks; cited from earlier work
impaired sexual function = details: cited from earlier work; for serum free testosterone concentration: mean ± SD
[2] = cited from earlier work
depression = details: cited from earlier work
[3] = 10 grams of 1% gel daily added to existing antidepressant, 8 weeks
[4] = Completers, Week 8 as endpoint, N = 10
[5] = Intent to Treat, last observation carried forward, N = 11

## C[C@]12CC[C@H]3[C@@H](CCC4=CC(=O)CC[C@@]43C)[C@@H]1CC[C@@H]2O [testosterone]
[1]; [3]
  CGI-severity scores compared with placebo: significantly greater rates of decrease
  HAM-D scores compared with placebo: significantly greater rate of decrease
[1]; [4]
  BDI, Total Score: mean change from baseline to endpoint: −6.8
  CGI-Improvement (mean): 2.9
  CGI-Severity: mean change from baseline to endpoint: −1.2
  HAM-D, Affective Subscale: mean change from baseline to endpoint: −2.7
  HAM-D, Total score: mean change from baseline to endpoint: −8.8
  HAM-D, Vegetative Subscale: mean change from baseline to endpoint: −3.5
[1]; [5]
  BDI, Total Score: mean change from baseline to endpoint: −5.5
  CGI-Improvement (mean): 3.09
  CGI-Severity: mean change from baseline to endpoint: −0.9
  HAM-D, Affective Subscale: mean change from baseline to endpoint: −2.1
  HAM-D, Total score: mean change from baseline to endpoint: −7.4
  HAM-D, Vegetative Subscale: mean change from baseline to endpoint: −3.2
Body fat and muscle mass
  change in muscle mass as expressed by FFMI: 1.1 (0.9) kg/meter^2
  change in percent body fat: −2.8 (1.7) %
Body weight
  increase in body weight: 4%
Impaired sexual function; 160 μg per day (so in the source) transdermally
  serum free testosterone concentration: 3.9 ± 2.4 pg/mL
Impaired sexual function; 300 μg per day transdermally
  serum free testosterone concentration: 4.9 ± 4.8 pg/mL
Impaired sexual function; 300 μg per day
  percentages of women with sexual fantasies, masturbation or intercourse at least once a week, increase from base line: two to three times
[2]; in vivo
  bound to protein in the blood: 98%
[2]; reported in the literature
  half-life: 10 to 100 min

## CCCCCCC(=O)O[C@H]1CC[C@H]2[C@@H]3CCC4=CC(=O)CC[C@]4(C)[C@H]3CC[C@]12C [testosterone enanthate]
depression; eight weeks, 400 mg every two weeks i.m. with SSRI, 19.2 at baseline, five men
  mean HAM-D score: 4.0
depression; randomized placebo-controlled trial, six weeks
  subjects responding (50% or greater reduction in HAM-D): About 40%
depression; randomized placebo-controlled trial, six weeks, testosterone alone
  HAM-D or BDI difference vs placebo: no significant difference between testosterone and placebo
